Entries after “also recorded” stand apart in the source; their conditions may differ.
Columns and labels:
LAD2 cells [1] = test: Mitochondria-induced degranulation (beta-hex release) after P2X7 receptor inhibitor pre-treatment; type: cell-based, human; conditions: pre-incubation 30 min; beta-hex release 30 min after stimulation
Protocol: FIG. 10 illustrates that mt component activation of LAD2 cells is P2X7-receptor-dependent. LAD2 cells were pre-treated with P2X7 receptor inhibitor for 30 min and then stimulated with mt components. Different concentration of CpG-ODN [ISOLATED fomyl-peptides?] was used to stimulated LAD2 cells (FIG. 10A). LAD2 cells were treated with a P2X7 receptor inhibitor (FIG. 10B). Beta-hex release was measured 30 mins after stimulation. (n=3; *p<0.05, compared to control). FIG. 10C: live LAD2 cells were stained with stained with Fura-2to measure intracellular calcium changes in response to different concentrations of mt components.
We then investigated which components from sonicated mitochondria may activate LAD2 cells. ATP has been reported to stimulated human mast cell degranulation (Cohen et al., 2001, Biochemistry 40:6589-97). Therefore, we tested if inhibition of P2X7 receptors, the primary receptor of ATP, can block the effects of mitochondrial components.

mouse model of AD = mouse model of AD (Inagaki 2010); cited from earlier work
[2] = test system: peripheral sensory neurons; conditions: Inagaki 2010; cited from earlier work
rat mast cells = rat mast cells (Sengoku 2000); cited from earlier work
LAD2 cells [3] = test: Pre-stored TNF secretion measured by ELISA; type: cell-based, human; conditions: MDIVI-1 40 μM pretreatment; SP 1 and 2 μM, vs SP alone
Protocol: (§1) FIG. 2 illustrates that SP-stimulated degranulation and pre-stored TNF secretion is blocked by the mitochondrial fission protein Drp1 inhibitor (MDIVI-1) and Drp1-silencing siRNA. LAD2 cells were treated with MDIVI-1 (40 μM) for 15 min at 37° C. FIG. 2A: Mitochondrial morphology was evaluated by Confocal microscopy in normal LAD2 cells with or without stimulation with SP (2 μM, 30 min, 37° C.). Left panels represent granules; middle panels show mitochondria and the right panels are merged from the previous two. The images shown are representative of more than 40 cells studied. […] LAD2 cells were pretreated with MDIVI-1 (40 μM) for 30 min and then stimulated with SP (1 or 2 μM) for 30 min at 37° C. β-hexosaminidase was measured spectrophotometrically and TNF was measured by ELISA.
(§2) In order to rule out the possibility that mitochondrial translocation at the cell surface is a bystander effect secondary to cell shape changes during degranulation, the function of Drp1 in mast cell degranulation was investigated. Pretreatment of LAD2 mast cells with the mitochondria] Drp1 inhibitor MDIVI-1 at 40 μM for 15 min at 37° C. (Cassidy-Stone, et al. 2008, Dev. Cell 14:193-204) inhibited mitochondrial translocation (FIG. 2A) despite addition of SP (2 μM for 30 min).

LAD2 cells [4] = test: SP-triggered beta-hexosaminidase release (degranulation index); type: cell-based, human; conditions: MDIVI-1 40 μM pretreatment; SP 1 and 2 μM, vs SP alone
Protocol: as §1, §2

LAD2 cells [5] = test: Mitochondrial translocation in live mast cells by confocal microscopy (MitoTracker/LysoTracker); type: cell-based, human
Protocol: LAD2 cells, mast cells derived from a human leukemia patient,were stained with MitoTracker probe (20 nM) for 20 min (middle panels) and LysoTracker DND probe (50 nM) for 30 min (left panels). The cells were then moved to glass bottom culture dishes and observed by TSC SP2 Confocal microscopy. […] The left panels show granules in green. The middle panels represent mitochondria florescence. The right panels represent images merged from the two previous panels. […] Merged images (as described above) of 100 cells randomly selected from each experiment (n=3) are scored by three different operators each time. […] Confocal images from 19 resting cells and 20 degranulating cells (SP 2 μM, 30 min) were randomly selected for analysis. Mitochondria numbers were calculated by ImageJ software using a “mitochondria calculator” plugin.
as §1
Very few mitochondria could be found in the cell surface region. It is almost impossible to distinguish individual mitochondria from this pool by confocal microscopy. Since the average pH of mast cell secretory granules is 5.5, LysoTracker (left panels) was used as a dye to stain the granules. After SP (2 μM) stimulation for 30 min at 37° C., mast cells underwent rapid degranulation, during which mitochondrial particles translocate throughout the cell (FIG. 1A). […]

LAD2 cells [6] = test: ATP and Cytochrome C in supernatant fluid of stimulated cells; type: cell-based, human; conditions: SP-stimulated LAD2 cells
LAD2 cells [7] = conditions: SP 1 or 2 μM for 30 min (Kulka 2007); cited from earlier work
human skin mast cells [8] = test: Transmission electron microscopy of mitochondria in skin mast cells; type: cell-based
From the text: Mitochondria are shown within white rectangles. White asterisks represent released granular materials. FIG. 5B charts the number of mitochondria visible under electron microscope and FIG. 5C charts the percentage of mitochondria close to the cell surface in each cell as semi-quantitated from high magnification glossy prints by three independent operators. Magnification: 13,800×; (n=3; *p<0.05 compared to control).
Observations using Transmission Electron Microscopy (TEM) (Theoharides, et al. 1998, Endocrinology 139:403-13) indicate translocation of mitochondria particles to sites of exocytosis. Mitochondria of unstimulated human skin mast cells are located around the cell nucleus and appear intact (FIG. 5A, left side). On the contrary, mitochondria of activated mast cells are much smaller than mitochondria from control cells and are located close to secretory granules undergoing exocytosis (FIG. 5A, right side).

[9] = test system: isolated cardiac cell mitochondria; conditions: SP concentrations higher than 1 μM; cited from earlier work
LAD2 cells [10] = test: mtDNA (Mt-7s, Mt-CytB) in supernatant fluid by real-time PCR; type: cell-based, human; conditions: 10 μM SP, 60 minutes
Protocol: Cell viability (D) was measured by Tulubin-Blue staining.
The amount of these two genes, MT-7s DNA and MT-CytB, which are unique to mtDNA and not present in regular human genomic DNA, increased 200 times in SP-stimulated cells (10 μM SP) compared with that in the control as detected by real-time PCR (FIG. 7A). In contrast, genomic DNA for glyceraldehyde 3-phosphate dehydrogenase (GAPDH) is not detected (Hu, VIC TAMRA, data not shown).

Drp1 = test: Western blot of Drp1 phosphorylation at Ser-616; type: cell-based, human; conditions: SP 2 μM for 30 min, LAD2 mast cells
From the text: Antibodies against the Ser-616 phosphorylated form of Drp1 was purchased from Cell Signaling based in Massachusetts, USA.
To confirm the involvement of Drp1, the State of phosphorylation of Drp1 at the amino acid serine-616 (Ser-616) was investigated through western blot analysis.

[11] = test system: murine mast cell line and isolated murine peritoneal mast cells; conditions: SP 0.01 to 1 μM; not IL-1, IL-3, IL-4, IL-6 or GM-CSF; cited from earlier work
human skin mast cells [12] = conditions: cited from earlier work

Structure (SMILES): Cl.Clc1cccc(-c2nnnn2Cc2cccnc2)c1Cl.O [A-438079 hydrochloride hydrate]
- block of mitochondria-induced degranulation (LAD2 cells [1]): 40%

Structure (SMILES): C=CC[C@@H]1/C=C(\C)C[C@H](C)C[C@H](OC)[C@H]2O[C@@](O)(C(=O)C(=O)N3CCCC[C@H]3C(=O)O[C@H](/C(C)=C/[C@@H]3CC[C@@H](O)[C@H](OC)C3)[C@H](C)[C@@H](O)CC1=O)[C@H](C)C[C@@H]2OC [FK506, tacrolimus]
- pruritus (mouse model of AD): prevent
- SP content of peripheral sensory neurons [2]: deplete
- secretion of IgE-induced histamine (rat mast cells): inhibit

Structure (SMILES): COc1cc(-n2c(=S)[nH]c3ccccc3c2=O)c(Cl)cc1Cl [MDIVI-1]
- secretion of pre-stored TNF (LAD2 cells [3]): significantly inhibited
- SP-triggered β-hexosaminidase release (LAD2 cells [4]): significantly inhibited; also recorded: significant inhibition
- mitochondrial translocation (LAD2 cells [5]; MDIVI-1 40 μM pretreatment 15 min, 37° C., SP 2 μM for 30 min): inhibited

Structure (SMILES): CSCC[C@H](NC(=O)[C@H](CC(C)C)NC(=O)CNC(=O)[C@H](Cc1ccccc1)NC(=O)[C@H](Cc1ccccc1)NC(=O)[C@H](CCC(N)=O)NC(=O)[C@H](CCC(N)=O)NC(=O)[C@@H]1CCCN1C(=O)[C@H](CCCCN)NC(=O)[C@@H]1CCCN1C(=O)[C@@H](N)CCCNC(=N)N)C(N)=O [SP, Substance P]
- Cytochrome C (Cyt C) in supernatant fluid (LAD2 cells [6]): marked increase
- ATP level in supernatant fluid (LAD2 cells [6]; dosage-dependent on SP): marked increase
- degranulation of pre-stored TNF (LAD2 cells [7]): activates degranulation
- number of mitochondria visible under the electron microscope (human skin mast cells [8]; SP-activated skin mast cells vs control): increased significantly
- percentage of mitochondria translocated close to cell surface (human skin mast cells [8]; SP-activated skin mast cells, control 25%): 75%
- increase in percentage of mitochondria translocated close to cell surface (human skin mast cells [8]; SP-activated vs control (25% to 75%)): 200%
- rate of oxygen consumption [9]: enhance
- percentage of LAD2 cells containing mitochondria undergoing translocation (LAD2 cells [5]; SP 2 μM, 30 min, 37° C., 20% in control cells): about 55%
- number of mitochondria close to the cell surface (LAD2 cells [5]; after SP stimulation (2 μM, 30 min), ImageJ count): significant increase
- amount of MT-7s DNA and MT-CytB in supernatant, increase vs control (LAD2 cells [10]): 200 times
- Drp1 phosphorylation at Ser-616 (Drp1): Drp1 phosphorylation
- gene expression and release of cytokines [11]: induce selective gene expression and release of TNF
- de novo TNF gene expression and release (human skin mast cells [12]; SP 0.3-30 μM (Okayama 1998)): selectively induced only de novo TNF gene expression and release
- histamine and TNF release (human skin mast cells [12]; SP 0.8-100 ηM): induced histamine and de novo synthesized TNF release
